The test system of series [1] is Hepatotoxicity. Description: Literature-mined compound from Fourches et al multi-species drug-induced liver injury (DILI) dataset, effect in non-rodents.
Series [2] has as its system Hepatotoxicity. Description: Literature-mined compound from Fourches et al multi-species drug-induced liver injury (DILI) dataset, effect in humans. Particulars: human.
In series [3] the test system is Hepatotoxicity. Put plainly: Literature-mined compound from Fourches et al multi-species drug-induced liver injury (DILI) dataset, effect in rodents. Particulars: rodentia.

The structures appear in SMILES notation.

Regarding `[H]/N=C(/N)N[C@H]1[C@H](O)[C@@H](O)[C@H](O[C@@H]2O[C@@H](C)[C@](O)(C=O)[C@H]2O[C@@H]2O[C@@H](CO)[C@H](O)[C@@H](O)[C@@H]2NC)[C@@H](N/C(N)=N\[H])[C@@H]1O` [STREPTOMYCIN], the Hepatotoxicity result in the series on Hepatotoxicity [1] (Liver), with Hepatotoxicity [2] (Liver) and with Hepatotoxicity [3] (Liver) was “drug-induced liver injury reported” throughout.
Consider `O=C1c2cccc(O)c2C(=O)c2c(O)cccc21` [DANTHRON], for which the Hepatotoxicity result with Hepatotoxicity [1] is given as “no drug-induced liver injury reported”; in the series with Hepatotoxicity [2] it was “no drug-induced liver injury reported”; in the series with Hepatotoxicity [3], “drug-induced liver injury reported”.
As for `CC(C)(C)NCC(O)c1ccc(O)c(CO)c1` (stereo not given) [ALBUTEROL], the Hepatotoxicity result in the series on Hepatotoxicity [1] (Liver) was “no drug-induced liver injury reported”; with Hepatotoxicity [2] (Liver) it was “no drug-induced liver injury reported”; in the series on Hepatotoxicity [3] (Liver) it was “drug-induced liver injury reported”.
With `CC(O)(CS(=O)(=O)c1ccc(F)cc1)C(=O)Nc1ccc(C#N)c(C(F)(F)F)c1` (stereo not given) [BICALUTAMIDE], the Hepatotoxicity result with Hepatotoxicity [1] is on record as “no drug-induced liver injury reported”; in the series on Hepatotoxicity [2], “drug-induced liver injury reported”; with Hepatotoxicity [3], “no drug-induced liver injury reported”.
As to `CC(C)NCC(O)COc1ccc(COCCOC(C)C)cc1` (stereo not given) [BISOPROLOL], the Hepatotoxicity result in the series on Hepatotoxicity [1] is on record as “no drug-induced liver injury reported”; with Hepatotoxicity [2] it was “drug-induced liver injury reported”; with Hepatotoxicity [3], “no drug-induced liver injury reported”.
In the case of `Cc1ncc([N+](=O)[O-])n1CCO` [METRONIDAZOLE], the Hepatotoxicity result in the series with Hepatotoxicity [1] is on record as “no drug-induced liver injury reported”; with Hepatotoxicity [2], “drug-induced liver injury reported”; with Hepatotoxicity [3], “drug-induced liver injury reported”.
As to `O=[N+]([O-])OCC(CO[N+](=O)[O-])O[N+](=O)[O-]` [NITROGLYCERIN], the Hepatotoxicity entry was “no drug-induced liver injury reported” in the series with Hepatotoxicity [1], “drug-induced liver injury reported” in the series on Hepatotoxicity [2] and “drug-induced liver injury reported” in the series with Hepatotoxicity [3].
For `CC(=O)S[C@@H]1CC2=CC(=O)CC[C@]2(C)[C@H]2CC[C@@]3(C)[C@@H](CC[C@@]34CCC(=O)O4)[C@H]12` [SPIRONOLACTONE], the Hepatotoxicity result in the series with Hepatotoxicity [1] was “no drug-induced liver injury reported”; in the series on Hepatotoxicity [2], “drug-induced liver injury reported”; with Hepatotoxicity [3] it was “drug-induced liver injury reported”.
With `Nc1ccn(C[C@@H](CO)OCP(=O)(O)O)c(=O)n1.O.O` [CIDOFOVIR], the Hepatotoxicity result was “no drug-induced liver injury reported” in the series on Hepatotoxicity [1], “drug-induced liver injury reported” with Hepatotoxicity [2] and “no drug-induced liver injury reported” with Hepatotoxicity [3].
`Cc1cccc(C)c1NC(=O)C1CCCCN1C` (stereo not given) [MEPIVACAINE]: the Hepatotoxicity result in the series on Hepatotoxicity [1] was “no drug-induced liver injury reported”; with Hepatotoxicity [2] it was “no drug-induced liver injury reported”; in the series with Hepatotoxicity [3] it was “drug-induced liver injury reported”.
`Nc1ccn([C@@H]2O[C@H](CO)[C@@H](O)[C@@H]2O)c(=O)n1` [CYTARABINE]: the values for the Hepatotoxicity result in the series with Hepatotoxicity [1] (Liver), with Hepatotoxicity [2] (Liver) and with Hepatotoxicity [3] (Liver) were “no drug-induced liver injury reported”, “drug-induced liver injury reported” and “drug-induced liver injury reported”, respectively.
With `CC(C(=O)O)c1ccc(C(=O)c2ccccc2)s1` (stereo not given) [TIAPROFENIC ACID], the results for the Hepatotoxicity entry in the series with Hepatotoxicity [1], in the series on Hepatotoxicity [2] and in the series with Hepatotoxicity [3] were “no drug-induced liver injury reported”, “no drug-induced liver injury reported” and “drug-induced liver injury reported”, respectively.
With `CCOC(=O)CCC(=O)O[C@H]1[C@H](O[C@@H]2[C@@H](C)[C@H](O[C@H]3C[C@@](C)(OC)[C@@H](O)[C@H](C)O3)[C@@H](C)C(=O)O[C@H](CC)[C@@](C)(O)[C@H](O)[C@@H](C)C(=O)[C@H](C)C[C@@]2(C)O)O[C@H](C)C[C@@H]1N(C)C` [ERYTHROMYCIN ETHYLSUCCINATE], the Hepatotoxicity result is listed as “no drug-induced liver injury reported” with Hepatotoxicity [1], “drug-induced liver injury reported” in the series with Hepatotoxicity [2] and “no drug-induced liver injury reported” in the series with Hepatotoxicity [3].
`COc1cc2c(cc1O)CCN[C@]21CS[C@@H]2c3c(OC(C)=O)c(C)c4c(c3[C@H](COC1=O)N1[C@@H]2[C@H]2c3c(cc(C)c(OC)c3O)C[C@@H]([C@@H]1O)N2C)OCO4` [TRABECTEDIN]: the results for the Hepatotoxicity result in the series with Hepatotoxicity [1], with Hepatotoxicity [2] and with Hepatotoxicity [3] were “no drug-induced liver injury reported”, “drug-induced liver injury reported” and “drug-induced liver injury reported”, respectively.
Consider `CC(=O)O[C@H]1C[C@@]2(C)[C@@H](C[C@@H](O)[C@H]3[C@@]4(C)CC[C@@H](O)[C@@H](C)[C@@H]4CC[C@@]32C)/C1=C(\CCC=C(C)C)C(=O)O` [FUSIDIC ACID], for which the Hepatotoxicity result with Hepatotoxicity [1] is “no drug-induced liver injury reported”; with Hepatotoxicity [2], “drug-induced liver injury reported”; in the series with Hepatotoxicity [3], “no drug-induced liver injury reported”.
On to `[H]/N=C(/N)N/C(=N/[H])NCCc1ccccc1` [PHENFORMIN], for which the values for the Hepatotoxicity entry in the series with Hepatotoxicity [1], in the series on Hepatotoxicity [2] and with Hepatotoxicity [3] were “no drug-induced liver injury reported”, “no drug-induced liver injury reported” and “drug-induced liver injury reported”, respectively.
With `CCOC(=O)CN[C@@H](C(=O)N1CC[C@H]1C(=O)NCc1ccc(/C(N)=N\O)cc1)C1CCCCC1` [XIMELAGATRAN], the Hepatotoxicity entry in the series with Hepatotoxicity [1] is “no drug-induced liver injury reported”; in the series on Hepatotoxicity [2] it was “drug-induced liver injury reported”; in the series with Hepatotoxicity [3], “no drug-induced liver injury reported”.
With `CCc1cc2c(s1)N(C)C(=O)CN=C2c1ccccc1Cl` [CLOTIAZEPAM], the Hepatotoxicity result is recorded as “no drug-induced liver injury reported” with Hepatotoxicity [1], “drug-induced liver injury reported” with Hepatotoxicity [2] and “no drug-induced liver injury reported” with Hepatotoxicity [3].
As for `COc1cc2nc(N3CCN(C(=O)c4ccco4)CC3)nc(N)c2cc1OC` [PRAZOSIN], the values for the Hepatotoxicity entry with Hepatotoxicity [1], in the series with Hepatotoxicity [2] and in the series with Hepatotoxicity [3] were “no drug-induced liver injury reported”, “drug-induced liver injury reported” and “drug-induced liver injury reported”, respectively.
On to `CC(NCCc1ccc(O)cc1)C(O)c1ccc(O)cc1.Cl` (stereo not given) [RITODRINE HYDROCHLORIDE], for which the Hepatotoxicity entry in the series on Hepatotoxicity [1] is on record as “drug-induced liver injury reported”; in the series on Hepatotoxicity [2], “no drug-induced liver injury reported”; with Hepatotoxicity [3], “no drug-induced liver injury reported”.
On to `CC1(C)S[C@@H]2[C@H](NC(=O)[C@H](N)c3ccc(O)cc3)C(=O)N2[C@H]1C(=O)O` [AMOXICILLIN], for which the Hepatotoxicity entry in the series on Hepatotoxicity [1] was “no drug-induced liver injury reported”; in the series on Hepatotoxicity [2], “drug-induced liver injury reported”; in the series with Hepatotoxicity [3] it was “no drug-induced liver injury reported”.
In the case of `C[C@@H](c1ncncc1F)[C@](O)(Cn1cncn1)c1ccc(F)cc1F` [VORICONAZOLE], the Hepatotoxicity entry is “no drug-induced liver injury reported” in the series on Hepatotoxicity [1], “drug-induced liver injury reported” with Hepatotoxicity [2] and “no drug-induced liver injury reported” in the series on Hepatotoxicity [3].
On to `O=NN(CCCl)C(=O)NC1CCCCC1` [LOMUSTINE], for which the Hepatotoxicity result was “no drug-induced liver injury reported” in the series with Hepatotoxicity [1], “drug-induced liver injury reported” in the series with Hepatotoxicity [2] and “drug-induced liver injury reported” in the series on Hepatotoxicity [3].
In the case of `Cc1cc2c(cc1CC(=O)c1sccc1S(=O)(=O)Nc1onc(C)c1Cl)OCO2` [SITAXENTAN], the values for the Hepatotoxicity entry with Hepatotoxicity [1], in the series on Hepatotoxicity [2] and in the series with Hepatotoxicity [3] were “no drug-induced liver injury reported”, “drug-induced liver injury reported” and “no drug-induced liver injury reported”, respectively.
Regarding `CC(=O)Nc1c(I)c(NC(C)=O)c(I)c(C(=O)[O-])c1I.[Na+]` [DIATRIZOATE SODIUM], the values for the Hepatotoxicity result with Hepatotoxicity [1], in the series on Hepatotoxicity [2] and in the series with Hepatotoxicity [3] were “no drug-induced liver injury reported”, “no drug-induced liver injury reported” and “drug-induced liver injury reported”, respectively.
On to `CCC(=O)O[C@H]1[C@H](O[C@@H]2[C@@H](C)[C@H](O[C@H]3C[C@@](C)(OC)[C@@H](O)[C@H](C)O3)[C@@H](C)C(=O)O[C@H](CC)[C@@](C)(O)[C@H](O)[C@@H](C)C(=O)[C@H](C)C[C@@]2(C)O)O[C@H](C)C[C@@H]1N(C)C.CCCCCCCCCCCCOS(=O)(=O)O` [ERYTHROMYCIN ESTOLATE], for which the Hepatotoxicity entry is reported as “no drug-induced liver injury reported” in the series with Hepatotoxicity [1], “drug-induced liver injury reported” with Hepatotoxicity [2] and “drug-induced liver injury reported” in the series on Hepatotoxicity [3].
On to `O=C(O)c1cn(C2CC2)c2cc(N3CCNCC3)c(F)cc2c1=O` [CIPROFLOXACIN], for which the Hepatotoxicity result was “no drug-induced liver injury reported” in the series with Hepatotoxicity [1] (Liver), “drug-induced liver injury reported” in the series with Hepatotoxicity [2] (Liver) and “drug-induced liver injury reported” in the series on Hepatotoxicity [3] (Liver).
Turning to `O=C(O)c1ccccc1O` [SALICYLIC ACID], the values for the Hepatotoxicity result with Hepatotoxicity [1] (Liver), in the series on Hepatotoxicity [2] (Liver) and in the series with Hepatotoxicity [3] (Liver) were “no drug-induced liver injury reported”, “no drug-induced liver injury reported” and “drug-induced liver injury reported”, respectively.
With `CCOC(=O)[N-]c1cn(N2CCOCC2)n[o+]1` [MOLSIDOMINE], the Hepatotoxicity entry in the series with Hepatotoxicity [1] is given as “no drug-induced liver injury reported”; in the series on Hepatotoxicity [2], “drug-induced liver injury reported”; with Hepatotoxicity [3], “drug-induced liver injury reported”.
On to `OC[C@H]1O[C@@H](O[C@@H]2[C@@H](CO)O[C@](O)(CO)[C@H]2O)[C@H](O)[C@@H](O)[C@H]1O` [LACTULOSE], for which the Hepatotoxicity entry is “no drug-induced liver injury reported” in the series with Hepatotoxicity [1], “drug-induced liver injury reported” in the series with Hepatotoxicity [2] and “drug-induced liver injury reported” in the series on Hepatotoxicity [3].

Source of the values: ChEMBL document CHEMBL1697731, “Cheminformatics analysis of assertions mined from literature that describe drug-induced liver injury in different species” (Chem Res Toxicol, 2010).
